Converted amounts (≈) assume the structure as drawn. Where two headings read alike, the source gives them in different places.

One data set has as its system C. albicans GDH2346. In words: Candida IC50, vegetative cells, by OD600 and fluorescence. It is filed as cell-based. The conditions noted are these: Candida albicans, GDH2346; vegetative cells; read-out: CA (Candida IC50). As for the experimental part:
(§1) Candida IC50s were determined by OD600 and fluorescence from vegetative cells and by MTS viability assay in the hyphal state. MICs were determined using a broth microdilution assay under standard CLSI conditions Bacteria strains: E. coli 25922 (EC), S. aureus 27660 (SA), E. faecalis 29212 (EF), P. aeruginosa 10145 (PA), and K. pneumoniae 13883 (KP). Cytotoxicity (EC50) was determined against mouse 3T3 fibroblasts, human transformed liver HepG2 cells, and human oral keratinocyte cell line, OKF6/TERT using an MTS viability assay. Candida IC50s<10 μg/mL, MICs<5 μg/mL and cytotoxicity EC50s>100 μM are indicated in green. MICs>5 μg/mL and cytotoxicity EC50s<100 μM are indicated in red. Candida IC50s (CA) were determined by OD600 and fluorescence from vegetative cells. MICs were determined using a broth microdilution assay under standard CLSI conditions Bacteria strains: E. coli 25922 (EC), S. aureus 27660 (SA), E. faecalis 29212 (EF), P. aeruginosa 10145 (PA), and K. pneumoniae 13883 (KP). Cytotoxicity (EC50) was determined against mouse 3T3 fibroblasts and human transformed liver HepG2 cells using an MTS viability assay. For determination of anti-Candida IC50s, the method was modified by using RPMI/MOPS buffer pH 6.3 and by addition of FDGlu, a substrate for the yeast enzyme exoglucanase which is secreted during cell growth. This provides a fluorescent readout for cell growth which was used in addition to the traditional optical density measure of growth. OD600 and fluorescence were determined at 24 and 48 hours and the average of all 4 reads was used for the final IC50 determination.

In another data set the test system is E. coli 25922. In words: Bacterial MIC, broth microdilution, CLSI. It is filed as cell-based. The conditions noted are these: Escherichia coli, 25922; read-out: EC (MIC). As for the experimental part:
as §1, with “assay.” for “assay. For determination of anti-Candida IC50s, the method was modified by using RPMI/MOPS buffer pH 6.3 and by addition of FDGlu, a substrate for the yeast enzyme exoglucanase which is secreted during cell growth. This provides a fluorescent readout for cell growth which was used in addition to the traditional optical density measure of growth. OD600 and fluorescence were determined at 24 and 48 hours and the average of all 4 reads was used for the final IC50 determination.”
(Dilution methods test growth across graded concentrations, often in twofold steps.)

The test system of a further data set is S. aureus 27660. In words: Bacterial MIC, broth microdilution, CLSI. The data set is classed as cell-based. The conditions noted are these: Staphylococcus aureus, 27660; read-out: SA (MIC). As for the experimental part: as §1, with “assay.” for “assay. For determination of anti-Candida IC50s, the method was modified by using RPMI/MOPS buffer pH 6.3 and by addition of FDGlu, a substrate for the yeast enzyme exoglucanase which is secreted during cell growth. This provides a fluorescent readout for cell growth which was used in addition to the traditional optical density measure of growth. OD600 and fluorescence were determined at 24 and 48 hours and the average of all 4 reads was used for the final IC50 determination.”

The next data set has as its system E. faecalis 29212. In words: Bacterial MIC, broth microdilution, CLSI. It is filed as cell-based. The conditions noted are these: Enterococcus faecalis, 29212; read-out: EF (MIC). As for the experimental part:
as §1, with “assay.” for “assay. For determination of anti-Candida IC50s, the method was modified by using RPMI/MOPS buffer pH 6.3 and by addition of FDGlu, a substrate for the yeast enzyme exoglucanase which is secreted during cell growth. This provides a fluorescent readout for cell growth which was used in addition to the traditional optical density measure of growth. OD600 and fluorescence were determined at 24 and 48 hours and the average of all 4 reads was used for the final IC50 determination.”

Another data set has as its system P. aeruginosa 10145. In words: Bacterial MIC, broth microdilution, CLSI. It is filed as cell-based. The note with it: Pseudomonas aeruginosa, 10145; read-out: PA (MIC). The protocol: as §1, with “assay.” for “assay. For determination of anti-Candida IC50s, the method was modified by using RPMI/MOPS buffer pH 6.3 and by addition of FDGlu, a substrate for the yeast enzyme exoglucanase which is secreted during cell growth. This provides a fluorescent readout for cell growth which was used in addition to the traditional optical density measure of growth. OD600 and fluorescence were determined at 24 and 48 hours and the average of all 4 reads was used for the final IC50 determination.”

A short description of data set [1]: Cytotoxicity, MTS viability assay. It is filed as cell-based, human. As for the experimental part:
Candida IC50s were determined by OD600 and fluorescence from vegetative cells and by MTS viability assay in the hyphal state. MICs were determined using a broth microdilution assay under standard CLSI conditions Bacteria strains: E. coli 25922 (EC), S. aureus 27660 (SA), E. faecalis 29212 (EF), P. aeruginosa 10145 (PA), and K. pneumoniae 13883 (KP). Cytotoxicity (EC50) was determined against mouse 3T3 fibroblasts, human transformed liver HepG2 cells, and human oral keratinocyte cell line, OKF6/TERT using an MTS viability assay. Candida IC50s<10 μg/mL, MICs<5 μg/mL and cytotoxicity EC50s>100 μM are indicated in green. MICs>5 μg/mL and cytotoxicity EC50s<100 μM are indicated in red.
Candida IC50s (CA) were determined by OD600 and fluorescence from vegetative cells. MICs were determined using a broth microdilution assay under standard CLSI conditions Bacteria strains: E. coli 25922 (EC), S. aureus 27660 (SA), E. faecalis 29212 (EF), P. aeruginosa 10145 (PA), and K. pneumoniae 13883 (KP). Cytotoxicity (EC50) was determined against mouse 3T3 fibroblasts and human transformed liver HepG2 cells using an MTS viability assay.
CLSI conditions Bacteria strains: clinical isolates; yeast strains: C. dubliniensis (NCPF3949), C. glabrata (ATCC 90030), C. krusei (ATCC 6258), C. parapsilosis (ATCC 22019), and C. tropicalis (ATCC 750). Cytotoxicity (EC50) was determined against mouse 3T3 fibroblasts, human transformed liver HepG2 cells, and human oral keratinocyte cell line, OKF6/TERT using an MTS viability assay.
(In general: Tetrazolium dyes change colour on reduction, which living cells bring about.)

[2] abbreviates: human, HepG2 cells (transformed liver), read-out: HepG2 (cytotoxicity EC50).
The mark [3] stands for this setting: mouse, 3T3 fibroblasts, read-out: 3T3 (cytotoxicity EC50).

One may read the IC50 as the midpoint of a concentration-inhibition curve. Consider `NCc1cccc(-c2ccc3[nH]c4ccc(-c5cccc(CN)c5)cc4c3c2)c1` [Compound 117], for which the half-inhibitory concentration (IC50) in the data set with C. albicans GDH2346 came to 3.1 mg/L (≈ 8.21 µM).
The same measure, in the same setting: with `NCCCn1c2ccccc2c2ccccc21` [Compound 139] the figure was over 100 mg/L.
A word on the MIC: it is the lowest concentration found to suppress growth. As a reminder, the EC50 is the concentration needed to bring the measured effect to its halfway point. In the case of `NCCCc1cccc(-c2ccc3c4ccc(-c5cccc(CCCN)c5)cc4n(CCN)c3c2)c1` [Compound 140], the MIC was 0.78 mg/L (≈ 1.64 µM) in the data set on E. coli 25922, 0.195 mg/L (≈ 0.409 µM) in the data set on S. aureus 27660, 3.13 mg/L (≈ 6.57 µM) in the data set with E. faecalis 29212 and 3.13 mg/L (≈ 6.57 µM) in the data set with P. aeruginosa 10145. Also, in the data set with C. albicans GDH2346, the IC50 turned out to be 3.58 mg/L (≈ 7.51 µM). Also, the EC50 came out at 99 µM in data set [1] (setting [2]) and 159 µM in data set [1] (setting [3]).
On to `NCCCn1c2cc(Br)ccc2c2ccc(Br)cc21` [Compound 141], for which the MIC in the data set with E. coli 25922 stood at 12.5 mg/L (≈ 32.7 µM); in the data set with S. aureus 27660 it was 12.5 mg/L (≈ 32.7 µM); in the data set on P. aeruginosa 10145 it was 100 mg/L (≈ 262 µM). In addition, the EC50 was 62 µM in data set [1] (setting [2]) and 107 µM in data set [1] (setting [3]).
On to `N=C(N)NCCCCCc1cccc(-c2ccc3c4ccc(-c5cccc(CCCNC(=N)N)c5)cc4n(CCCNC(=N)N)c3c2)c1` [Compound 142], for which the MIC turned out to be 3.13 mg/L (≈ 4.85 µM) in the data set with E. coli 25922, 1.56 mg/L (≈ 2.42 µM) with S. aureus 27660, 6.25 mg/L (≈ 9.69 µM) with E. faecalis 29212 and 25 mg/L (≈ 38.8 µM) with P. aeruginosa 10145. For the same molecule, in the data set with C. albicans GDH2346, the IC50 was found to be 1.65 mg/L (≈ 2.56 µM). Moreover, the figures for the EC50 in data set [1] (setting [2]) and in data set [1] (setting [3]) were 100 µM and 131 µM, respectively.
With `NCCCOc1cc(OCCCN)cc(-c2ccc3c4ccc(-c5cc(OCCCN)cc(OCCCN)c5)cc4n(CCCN)c3c2)c1` [Compound 143], the MIC in the data set with E. coli 25922 was determined as 3.13 mg/L (≈ 4.68 µM); in the data set with S. aureus 27660, 0.39 mg/L (≈ 0.583 µM); in the data set with E. faecalis 29212, 1.56 mg/L (≈ 2.33 µM); in the data set on P. aeruginosa 10145, 50 mg/L (≈ 74.8 µM). Moreover, the IC50 in the data set with C. albicans GDH2346 came out at 6.48 mg/L (≈ 9.69 µM). The EC50 in data set [1] (setting [2]) is 140 µM; in data set [1] (setting [3]), 222 µM.
Regarding `NCCCn1c2cc(-c3cccc(CCN)c3)ccc2c2ccc(-c3cccc(CCN)c3)cc21` [Compound 144], the minimum inhibitory concentration (MIC) in the data set with E. coli 25922 turned out to be 3.13 mg/L (≈ 6.77 µM); in the data set on S. aureus 27660 it was 0.098 mg/L (≈ 0.212 µM); in the data set on E. faecalis 29212, 0.195 mg/L (≈ 0.421 µM); with P. aeruginosa 10145 it was 3.13 mg/L (≈ 6.77 µM). In the data set on C. albicans GDH2346, the IC50 was 3.95 mg/L (≈ 8.54 µM). Also, the EC50 in data set [1] (setting [2]) was 188 µM; in data set [1] (setting [3]) it was 80 µM.
Turning to `NCCCOc1cc(OCCCN)cc(-c2ccc3c(c2)c2ccccc2n3CCCN)c1` [Compound 145], the MIC in the data set with E. coli 25922 was over 50 mg/L; with S. aureus 27660 it was 25 mg/L (≈ 56 µM); in the data set on E. faecalis 29212, 3.13 mg/L (≈ 7.01 µM); in the data set on P. aeruginosa 10145 it was 50 mg/L (≈ 112 µM). In addition, the IC50 in the data set on C. albicans GDH2346 is 23.9 mg/L (≈ 53.6 µM). Also, the EC50 was 790 µM in data set [1] (setting [2]) and over 1000 µM in data set [1] (setting [3]).
With `NCCCOc1cc(OCCCN)cc(-c2ccc3c4ccc(Br)cc4n(CCCN)c3c2)c1` [Compound 146], the MIC with E. coli 25922 stood at 50 mg/L (≈ 95.1 µM); in the data set on S. aureus 27660, 0.39 mg/L (≈ 0.742 µM); with E. faecalis 29212, 0.39 mg/L (≈ 0.742 µM); in the data set on P. aeruginosa 10145 it was 12.5 mg/L (≈ 23.8 µM). The IC50 in the data set on C. albicans GDH2346 worked out at 44.6 mg/L (≈ 84.9 µM). The EC50 in data set [1] (setting [2]) is 341 µM; in data set [1] (setting [3]), 307 µM.
In the case of `CCn1c2ccc(-c3cc(OCCCN)cc(OCCCN)c3)cc2c2cc(-c3cc(OCCCN)cc(OCCCN)c3)ccc21` [Compound 147], the MIC in the data set on E. coli 25922 came out at 1.56 mg/L (≈ 2.44 µM); in the data set on S. aureus 27660, 0.098 mg/L (≈ 0.153 µM); in the data set on E. faecalis 29212, 0.39 mg/L (≈ 0.61 µM); in the data set on P. aeruginosa 10145 it was 6.25 mg/L (≈ 9.77 µM).
As to `CCn1c2ccc(-c3cc(C(=O)NCCN)cc(C(=O)NCCN)c3)cc2c2cc(-c3cc(C(=O)NCCN)cc(C(=O)NCCN)c3)ccc21` [Compound 148], the MIC in the data set on E. coli 25922 is 25 mg/L (≈ 36.1 µM); in the data set with S. aureus 27660 it was 3.13 mg/L (≈ 4.52 µM); with E. faecalis 29212, over 50 mg/L; in the data set with P. aeruginosa 10145, over 50 mg/L. The IC50 in the data set with C. albicans GDH2346 amounted to 8.74 mg/L (≈ 12.6 µM). Moreover, the figures for the EC50 in data set [1] (setting [2]) and in data set [1] (setting [3]) were 312 µM and 450 µM, respectively.
For `NCCCn1c2cc(-c3cccc(N)c3)ccc2c2ccc(-c3cccc(N)c3)cc21` [Compound 153], the MIC in the data set with E. coli 25922 came out at 12.5 mg/L (≈ 30.7 µM); in the data set on S. aureus 27660, 1.56 mg/L (≈ 3.84 µM); in the data set with E. faecalis 29212, 12.5 mg/L (≈ 30.7 µM); in the data set with P. aeruginosa 10145 it was 100 mg/L (≈ 246 µM). The figures for the EC50 in data set [1] (setting [2]) and in data set [1] (setting [3]) were 65 µM and 46 µM, respectively.
`CCn1c2ccc(-c3cccc(N(CCN)CCN)c3)cc2c2cc(-c3cccc(N(CCN)CCN)c3)ccc21` [Compound 155]: the minimum inhibitory concentration (MIC) in the data set with E. coli 25922 was 12.5 mg/L (≈ 22.7 µM); in the data set on S. aureus 27660 it was 0.39 mg/L (≈ 0.709 µM); with E. faecalis 29212, over 50 mg/L; with P. aeruginosa 10145, 12.5 mg/L (≈ 22.7 µM). Further, the 50% inhibitory concentration (IC50) in the data set with C. albicans GDH2346 was determined as 2.63 mg/L (≈ 4.78 µM).

The record behind these values is patent US8895561B2, “Compounds and methods for treating candidiasis and aspergillus infections” (Cellceutix Corporation, priority 2012, dated 2014).
